Assay results published in patent US20050130989A1, “N-arylheteroaromatic products compositions containing them and use thereof” (Aventis Pharma S. A., priority 2003, published 2005).
Where a name gives a salt, the structure may show the parent alone. Read-outs that look alike come from different tables or passages of the source.

Key:
tubulin = target: T1, tubulin (Sus scrofa, UniProt P02550+P02554); assay: Evaluation of the inhibition of tubulin polymerization (turbidimetry); format: biochemical, pig; conditions: tubulin 10 μm (1 mg/ml), 37° C., turbidity at 350 nm; concentration that inhibits the rate of polymerization by 50%; read-out: Inhibition of tubulin polymerization IC 50 (μm)
T1 construct: Tubulin is purified from pig brain according to published methods; from tissue; host or cells: pig brain
Protocol: Tubulin is purified from pig brain according to published methods (Shelanski et al., 1973, Proc. Natl. Acad. Sci. USA, 70, 765-768. Weingarten et al., 1975, Proc. Natl. Acad. Sci. USA, 72, 1858-1862). Briefly, the brains are ground and centrifuged in an extraction buffer. The tubulin contained in the supernatant of the extract undergoes two successive cycles of polymerization at 37° C. and depolymerization at 4° C., before being separated from the MAPs (Microtubule Associated Proteins) by chromatography on a phosphocellulose P11 column (Whatman). The tubulin thus isolated is more than 95% pure. It is stored in a buffer known as RB/2 30% glycerol, the composition of which is 50 mM MES-NaOH [2-(N-morpholino)ethanesulfonic acid], pH 6.8; 0.25 mM MgCl2; 0.5 mM EGTA; 30% glycerol (v/v), 0.2 mM GTP (guanosine-5′-triphosphate).
The polymerization of tubulin to microtubules is monitored by turbidimetry as follows: the tubulin is adjusted to a concentration of 10 μm (1 mg/ml) in RB/2 30% glycerol buffer to which 1 mM GTP and 6 mM MgCl2 are added. The polymerization is triggered by an increase in temperature from 6° C. to 37° C. in a cuvette with an optical path length of 1 cm, placed in a UVIKON 931 spectrophotometer (Kontron) equipped with a thermostatically maintained cuvette holder. The increase in the turbidity of the solution is monitored at 350 nm.
The products are dissolved at 10 mM in DMSO and added at variable concentrations (0.5 to 10 μm) to the tubulin solution before polymerization. The IC50 value is defined as the concentration of product that inhibits the rate of polymerization by 50%.

HCT116 cells = assay: Inhibition of proliferation of the human colon tumor line HCT116 ([14C]-thymidine incorporation); format: cell-based; conditions: 48 hours at 37° C., read-out: Inhibition of HCT116 proliferation IC 50 (μm)
Protocol: The proliferation of HCT116 cells is evaluated by measuring the incorporation of [^14C]-thymidine in the following manner. The HCT 116 cells (obtained from the ATCC) are cultured in a DMEM medium (Gibco) containing 10% fetal calf serum and antibiotics (1% penicillin, 1% streptomycin). To perform the proliferation test, the cells are inoculated in cytostar 96-well microplates (Amersham), at a rate of 5000 cells per well. [^14C]-thymidine (0.1 μCi/well) and the products to be evaluated are then added. Variable concentrations of products up to 10 μm are used; the DMSO (solvent used to dissolve the products) should not exceed 0.5% in the medium. 48 hours after incubation at 37° C., the radioactivity incorporated into the cells is measured by counting the plate in a TRI-LUX counter (Wallac). The IC50 is defined as the concentration of product that reduces the radioactivity by 50% compared with an untreated control. A product whose IC50 is less than 3 μm is considered cytotoxic.

T1 sequence (P02550 whole entry): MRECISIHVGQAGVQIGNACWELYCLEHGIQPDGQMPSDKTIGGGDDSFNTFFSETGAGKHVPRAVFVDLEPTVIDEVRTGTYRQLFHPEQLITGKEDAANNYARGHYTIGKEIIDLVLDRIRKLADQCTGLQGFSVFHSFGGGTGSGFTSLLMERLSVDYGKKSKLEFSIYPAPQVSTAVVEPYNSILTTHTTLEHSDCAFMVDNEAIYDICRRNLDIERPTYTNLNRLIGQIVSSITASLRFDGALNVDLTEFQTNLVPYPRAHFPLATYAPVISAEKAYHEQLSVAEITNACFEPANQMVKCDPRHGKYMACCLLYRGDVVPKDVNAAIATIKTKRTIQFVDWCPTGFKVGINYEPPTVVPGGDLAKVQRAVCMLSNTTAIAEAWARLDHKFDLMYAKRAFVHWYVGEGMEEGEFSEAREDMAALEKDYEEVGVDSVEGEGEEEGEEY
T1 sequence (P02554 whole entry): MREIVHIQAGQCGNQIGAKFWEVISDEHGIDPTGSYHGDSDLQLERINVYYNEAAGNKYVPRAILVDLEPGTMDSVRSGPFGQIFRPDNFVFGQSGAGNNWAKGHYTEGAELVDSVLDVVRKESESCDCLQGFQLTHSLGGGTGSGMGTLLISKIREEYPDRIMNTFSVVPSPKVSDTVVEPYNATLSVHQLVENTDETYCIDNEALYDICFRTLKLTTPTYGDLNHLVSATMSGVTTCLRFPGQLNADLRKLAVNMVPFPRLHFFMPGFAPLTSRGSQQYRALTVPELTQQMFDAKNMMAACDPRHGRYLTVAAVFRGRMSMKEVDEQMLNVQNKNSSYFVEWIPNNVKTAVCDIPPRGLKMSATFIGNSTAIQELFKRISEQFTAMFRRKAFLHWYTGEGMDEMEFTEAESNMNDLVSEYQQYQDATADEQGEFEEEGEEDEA

## Cc1cccc(-n2nc(C)cc2C(=O)N2CCN(c3ccc(C)c(C)c3)CC2)c1 [3/30]
tubulin
  IC50: 2900 nM
HCT116 cells; Homo sapiens, HCT-116, 48 h
  IC50: 729 nM

## Cc1cccc(-n2nc(C)cc2C(=O)N2CCN(c3cccc(Cl)c3)CC2)c1 [3/31]
tubulin
  IC50: 1300 nM
HCT116 cells; Homo sapiens, HCT-116, 48 h
  IC50: 140 nM

## Cc1cccc(-n2nc(C)cc2C(=O)N2CCN(c3cccc4ccccc34)CC2)c1 [3/32]
tubulin
  IC50: 3000 nM
HCT116 cells; Homo sapiens, HCT-116, 48 h
  IC50: 556 nM

## Cc1cc(C(=O)N2CCN(c3cc(Cl)ccc3C)CC2)n(-c2ccccc2)n1 [3/33]
tubulin
  IC50: 3000 nM
HCT116 cells; Homo sapiens, HCT-116, 48 h
  IC50: 170 nM

## Cc1cc(C(=O)N2CCN(c3cccc(Cl)c3)CC2)n(-c2cccc(Cl)c2)n1 [3/34]
tubulin
  IC50: 2500 nM
HCT116 cells; Homo sapiens, HCT-116, 48 h
  IC50: 526 nM

## COc1cccc(-n2nc(C)cc2C(=O)N2CCN(c3cccc(Cl)c3)CC2)c1 [3/35]
tubulin
  IC50: 5000 nM
HCT116 cells; Homo sapiens, HCT-116, 48 h
  IC50: 284 nM

## Cc1cc(C(=O)N2CCN(c3cccc(Cl)c3Cl)CC2)n(-c2ccccc2)n1 [3/36]
tubulin
  IC50: 1800 nM
HCT116 cells; Homo sapiens, HCT-116, 48 h
  IC50: 119 nM

## Cc1cc(C(=O)N2CCN(c3cccc(Cl)c3)CC2)n(-c2ccccc2F)n1 [3/37]
tubulin
  IC50: 20000 nM
HCT116 cells; Homo sapiens, HCT-116, 48 h
  IC50: 1440 nM

## Cc1cc(C(=O)N2CCN(c3cccc(Cl)c3)CC2)n(-c2ccc(F)cc2)n1 [3/38]
tubulin
  IC50: 6000 nM
HCT116 cells; Homo sapiens, HCT-116, 48 h
  IC50: 338 nM

## COc1ccc(-n2nc(C)cc2C(=O)N2CCN(c3cccc(Cl)c3)CC2)cc1 [3/39]
HCT116 cells; Homo sapiens, HCT-116, 48 h
  IC50: 734 nM

## Cc1cc(C(=O)N2CCN(c3ccccc3)CC2)n(-c2cccc(Cl)c2)n1 [3/40]
tubulin
  IC50: 3000 nM
HCT116 cells; Homo sapiens, HCT-116, 48 h
  IC50: 775 nM

## Cc1cc(C(=O)N2CCN(c3ccc(F)cc3)CC2)n(-c2ccccc2)n1 [3/41]
tubulin
  IC50: 6500 nM
HCT116 cells; Homo sapiens, HCT-116, 48 h
  IC50: 294 nM

## Cc1cc(C(=O)N2CCN(c3ccccc3C)CC2)n(-c2ccccc2)n1 [3/42]
tubulin
  IC50: 5000 nM
HCT116 cells; Homo sapiens, HCT-116, 48 h
  IC50: 85 nM

## CCOc1ccccc1N1CCN(C(=O)c2cc(C)nn2-c2ccccc2)CC1 [3/43]
tubulin
  IC50: 9000 nM
HCT116 cells; Homo sapiens, HCT-116, 48 h
  IC50: 229 nM

## Cc1cccc(-n2nc(C)cc2C(=O)N2CCN(c3ccccc3)CC2)c1 [3/44]
tubulin
  IC50: 2000 nM
HCT116 cells; Homo sapiens, HCT-116, 48 h
  IC50: 47 nM

## COc1ccccc1N1CCN(C(=O)c2cc(C)nn2-c2ccccc2F)CC1 [3/85]
HCT116 cells; Homo sapiens, HCT-116, 48 h
  IC50: 189 nM

## Cc1cc(C(=O)N2CCN(c3ccc(Cl)c(Cl)c3)CC2)n(-c2ccccc2)n1 [3/110]
HCT116 cells; Homo sapiens, HCT-116, 48 h
  IC50: 299 nM

## COc1ccccc1N1CCN(C(=O)c2cc(C)nn2-c2cccc(Cl)c2)CC1 [3/120]
HCT116 cells; Homo sapiens, HCT-116, 48 h
  IC50: 40 nM

## Cc1cc(C(=O)N2CCN(c3ccc(C(F)(F)F)cc3)CC2)n(-c2cccc(Cl)c2)n1 [3/126]
HCT116 cells; Homo sapiens, HCT-116, 48 h
  IC50: 8740 nM

## COc1ccccc1N1CCN(C(=O)c2cc(C)nn2-c2ccccc2F)CC1 [3/144]
HCT116 cells
  IC50: 255 nM

## NC(=O)c1cccc(N2CCN(C(=O)c3ccnn3-c3ccccc3)CC2)c1 [Example E133, 3-[4-(2-Phenyl-2H-pyrazole-3-carbonyl)piperazin-1-yl]benzamide]
tubulin
  IC50: 1000 nM

## COc1cc(OC)cc(N2CCN(C(=O)c3cc(CC#N)nn3-c3ccccc3)CC2)c1 [Example E135, (5-Cyanomethyl-2-phenyl-2H-pyrazol-3-yl)[4-(3,5-dimethoxyphenyl)piperazin-1-yl]methanone]
tubulin
  IC50: 500 nM

## Cc1cc(C(=O)N2CCN(c3cccc(OC(F)F)c3)CC2)n(-c2ccccc2)n1 [Example E136, [4-(3-Difluoromethoxyphenyl)piperazin-1-yl](5-methyl-2-phenyl-2H-pyrazol-3-yl)methanone hydrochloride]
tubulin
  IC50: 1300 nM

## COc1cc(OC)cc(N2CCN(C(=O)c3cc(N4CCCCC4)nn3-c3ccccc3)CC2)c1 [Example E138, [4-(3,5-dimethoxyphenyl)piperazin-1-yl][5-(piperid-1-yl)-2-phenyl-2H-pyrazol-3-yl)methanone]
tubulin
  IC50: 22000 nM

## COc1cc(OC)cc(N2CCN(C(=O)c3c(F)c(F)nn3-c3ccccc3)CC2)c1 [Example E139, [4-(3,5-dimethoxyphenyl)piperazin-1-yl](4,5-difluoro-2-phenyl-2H-pyrazol-3-yl)methanone]
tubulin
  IC50: 2900 nM

## Cc1cc(C(=O)N2CCN(c3cncc(O)c3)CC2)n(-c2ccccc2)n1 [Example E140, [4-(5-hydroxypyrid-3-yl)piperazin-1-yl](5-methyl-2-phenyl-2H-pyrazol-3-yl)-methanone]
tubulin
  IC50: 16500 nM

## N-{{3-{[4-(3,5-Dimethoxyphenyl)piperazin-1-yl]carbonyl}-2-phenyl-2H-pyrazin-5-yl}glycine tert-butyl ester [Example E137]
tubulin
  IC50: 3200 nM
